The results in this text go back to a melting point compilation (Tetko et al.; mined from patent text by program, amines drawn as free bases though some values may be those of a salt).

As usually defined, the melting point is the temperature, or range, at which the solid turns liquid. `O=C(Cc1csc(-c2c(O)cccc2O)n1)NC1C(=O)N2C(C(=O)OC(c3ccccc3)c3ccccc3)=CCSC12` (stereo not given): the melting point lay within 164 to 166 °C. In the case of `CC(C)(C)OC(=O)N1c2ccccc2CC1c1ccccc1N` (stereo not given) it was 114 to 117 °C. With `CCCN(C)c1ccc(-c2c(Cl)c(=O)c2=O)cc1`, the melting point was determined as 162 °C. `CC1CNCc2c1[nH]c1cnc3cc(Cl)ccc3c21` (stereo not given) had a melting point of 286 to 287 °C. In the case of `Cc1cccnc1COc1nn2c(-c3ccccc3)nnc2cc1N1CCCCC1` it was 160 °C; in that of `COc1cc(C(=O)c2ncc3c(OC)cccn23)ccc1N`, 229 °C; in that of `COc1ccc(CSc2nnc(-c3ccc4c(c3)CCO4)o2)cc1Cl`, 136 to 137 °C.

`CC(C)(C)c1ccc(S(=O)(=O)/C=C/C(N)=O)cc1` came in with a melting point of 151 °C.

As to `COc1cc(OCc2nccs2)ccc1/C=C/c1cc(/C=C/c2ccc3cc[nH]c3c2)n[nH]1`, the melting point lay in the range of 229 to 237 °C.

In the case of `CCCC[C@H](NC(=O)[C@@H](NC(=O)OCc1ccccc1)[C@@H](C)CC)C(=O)CSCc1ccco1`, the melting point fell in the range of 101 to 103 °C.

Regarding `Cc1c(Cc2ccncc2)nnc(Nc2cccc(Cl)c2)c1C`, the melting point lay in the range of 164 to 167 °C.

As for `CC1(C=C(F)F)CN(C(=O)Nc2ccc(OC(F)(F)F)cc2)N=C1c1ccc(Cl)cc1` (stereo not given), the melting point lay within 142 to 148 °C. In the case of `Oc1ccc(Cc2ccccc2)c2c1NCCC2` it was 135 to 136 °C. The same measure for `COC1CCC(O)C(CNC(C)=O)O1` (stereo not given): 117 to 118 °C. In turn, `Fc1ccccc1-c1c(OCc2ncnn2CC(F)F)nn2c(-c3ccccc3F)nncc12` yielded a melting point of 179 to 180 °C.

Compound `O=C(O)c1ccc2c(c1)S(=O)(=O)c1cc(C(=O)O)ccc1O2` registered a melting point of 399 to 401 °C. In the case of `COC(CN(C)C(=O)Nc1nnc(C(C)Oc2ccc(Cl)cc2Cl)s1)OC` (stereo not given) it was 125 to 127 °C.

As for `COc1c(Cl)ccc(C(=O)O)c1SC`, the melting point is 98 to 99 °C.

In turn, `CCOP(=O)(OCC)c1cc2cc(N)c(C(F)(F)F)cc2[nH]c1=O` registered a melting point of 240 to 244 °C. The same measure for `CC1CN(Cc2ccccc2)Cc2c(C=O)c(-c3ccccc3)n(Cc3ccccc3)c21` (stereo not given): 120 to 121 °C; for `N#Cc1ccc(O)c(I)c1`: 144 to 146 °C; for `O=C(Nc1ccc(Cl)cc1)N[C@H]1C[C@H](C(=O)O)Nc2cc(Cl)cc(Cl)c21` (relative stereo): 199 to 200 °C. The same measure for `O=C(O)CCCNC(=O)c1nc(Cl)c(Cl)[nH]1`: 285 °C; for `CSc1ccc(C(=O)NN=C2C(=O)Nc3ccc(I)cc32)cc1`: 298 °C. In turn, `CCCCCC(=O)OCC(CO)CCn1cnc2c(=O)[nH]c(N)nc21` (stereo not given) yielded a melting point of 179 to 181 °C. Compound `Cc1ccc(F)cc1C(=O)Nc1ccc(C(=O)N2Cc3ccccc3Oc3ncccc32)cn1` yielded a melting point of 187 to 189 °C. In the case of `COc1ccc2cc([C@H](C)C(=O)OCC(=O)COC(=O)c3ccc(CO[N+](=O)[O-])cc3)ccc2c1` it was 105 to 107 °C; in that of `N#Cc1cc(F)c(-n2nc(C(F)(F)F)n(N)c2=O)cc1F`, 141 °C; in that of `CC(C)(C)N(CC(=O)O)C(=O)C(NC(=O)c1ccccc1)SC(=O)c1ccccc1` (stereo not given), 157 to 160 °C. The same measure for `CC=C(NC(=O)C1CC1(Cl)Cl)C(=O)O` (stereo not given): 188 to 190 °C; for `COC(=O)CCc1oc(-n2ccnc2)nc1-c1ccc(Cl)cc1`: 95 to 96 °C; for `COC(=O)c1ccc2c(nc(C)n2C)c1C(=O)OC`: 205 to 208 °C. As for `CN(C=O)c1ccc(Cl)cc1C(=O)c1ccccc1`, the melting point lay in the range of 93.5 to 94.5 °C.

Take `C=C(CC(Cl)(Cl)Cl)c1nc(Cl)ccc1Cl`: the melting point lay in the range of 71 to 74 °C. On to `CCCc1csc(NS(=O)(=O)c2cccc(Cl)c2C)n1`, for which the melting point came out at 169 °C. Compound `Cc1cn2c(c1C(=O)OC(C)C)SCC2CC(N)=O` (stereo not given) gave a melting point of 143 to 146 °C. The same measure for `O=C(O)c1ccc(-n2nc(-c3ccccc3O)nc2-c2ccccc2O)cc1`: 255 to 262 °C. Take `O=C(O)CN1C(=O)C(=Cc2ccncc2)SC1=S`: the melting point lay within 263 to 266 °C. The same measure for `Cn1nc(N)c(C#N)c1N`: 194 °C; for `CC(=O)N1CCN(c2cc3c(c(C)c2F)c(=O)c(C(=O)O)cn3C2CC2)CC1`: 261 to 263 °C.

In turn, `Cc1c(NC(=O)c2cccc(OCCN)c2)c2ccccn2c1C(=O)c1ccc(NC(=O)C(F)(F)F)c(C(=O)OCc2ccccc2)c1` had a melting point of 219 °C. The same measure for `CCSCCNC(=O)Nc1ccccc1CCc1cc(C(C)(C)C)c(O)c(C(C)(C)C)c1`: 131 to 132 °C; for `O=C(c1ccccc1)c1c(O)c2cc(Cl)cc(Cl)c2[nH]c1=O`: 258 to 259 °C; for `Cc1ccc(C2CCN(CCc3c(C)[nH]c4ccccc34)CC2)cc1`: 192 to 194 °C.

Take `O=c1oc(/C=C/c2ccccc2)ns1`: the melting point is 105 to 106 °C. Compound `CC(C)(C)OC(=O)N1CCN(CCOC(N)=O)CC1` returned a melting point of 135 to 136 °C. The same measure for `CC(C)Nc1cncc(C(=NCCO[N+](=O)[O-])NC#N)c1`: 123 °C; for `CC(C)c1nnn(-c2c(Cl)cccc2Cl)c1COc1ccc(N(C)C(=O)c2ccc(C(=O)O)cc2)c(C(F)(F)F)n1`: 218 to 219 °C; for `Cc1c(-c2ccccc2)sc2ncc(C(=O)C(C)C)c(O)c12`: 114 to 117 °C. The same measure for `Nc1nc2ccc(Cl)nc2c(=O)[nH]1`: over 330 °C. In the case of `CCCCCCCCCCCCCCCCCCOc1cccc(C(=O)OC)c1OCCCOc1ccc(OCc2ccccc2)cc1` it was 43 to 45 °C; in that of `CCCCOc1cc(/C=C(\OCC)C(=O)O)ccc1OCCc1ccc(OS(C)(=O)=O)cc1`, 117 °C. As for `CN(C)CCNC(=O)c1cc(S(C)(=O)=O)c(Cl)cc1NCc1ccco1`, the melting point was in the range of 102 to 105 °C. The compound `O=c1ccn(-c2cccc(Cl)c2)nc1-c1ccnn1-c1ccccc1` gave a melting point of 146 to 147 °C. In the case of `O=C(Nc1cc(Cl)cc(Cl)c1)c1ccc(Cl)cc1O` it was 255 to 256 °C; in that of `COc1cc(C(C)C)ccc1C1(O)C(=O)c2cccc(N)c2C1=O` (stereo not given), 219 to 220 °C; in that of `CCNC(=O)n1nc(Oc2c(Cl)cc(C(F)(F)F)cc2Cl)cc1C(=O)OC`, 88 to 90 °C. The same measure for `CS(=O)(=O)c1ccc(N2CC=C(N3CCCC3)CC2)cc1`: 141 to 143 °C. As to `O=C1CCC(N2C(=O)c3cccc(CNC(=O)c4cccc(Br)n4)c3C2=O)C(=O)N1` (stereo not given), the melting point is 181 to 183 °C.

Consider `COc1ccc2c(C)c(-c3c(OC)cccc3OC(C)=O)c(=O)oc2c1`, for which the melting point was 125 to 126 °C. In the case of `N[C@@H]1C(=O)Nc2ccccc2-c2ccccc21` it was over 225 °C; in that of `O=S1(=O)c2ccccc2N(c2cc(F)cc(F)c2)c2ccccc21`, 255 to 258 °C; in that of `CS(=O)(=O)NCC(=O)N1CCC(C2c3ncc(Br)cc3CCc3cc(Cl)cc(Cl)c32)CC1` (single isomer, unassigned; (+)), 120 to 140 °C. In the case of `COc1ccc2c(c1)C13CCCOC1(C)C(C2)N(C#N)CC3` (stereo not given) it was 157 to 158 °C; in that of `CCC(CC)C(NC(=O)c1ccc(Cl)cc1)NC(=C[N+](=O)[O-])Nc1cccnc1` (stereo not given), 192 to 193 °C. The compound `COCCCOc1ccc(CCC(=O)O)c(Oc2ncc(C(F)(F)F)cc2Cl)c1` displayed a melting point of 99.1 to 99.2 °C. In turn, `CNC(=O)Nc1cc2c(s1)CCCC2NC(=O)NC` (stereo not given) showed a melting point of 233 to 234 °C. As to `CCCCc1nc(C(=O)c2ccccc2)c(C#N)[nH]1`, the melting point fell in the range of 121 to 122 °C. For `COc1ccc(-c2[nH]c3ccccc3c(=O)c2Cc2ccncc2)cc1`, the melting point is 246 to 248 °C.

Take `CN(C)CC1CN(c2c(F)cc3c(=O)c(C(=O)O)cn(C4CC4)c3c2F)CCO1` (stereo not given): the melting point is 182 to 183 °C. `COC(=O)c1ccc(C#C[Si](C)(C)C)cn1` yielded a melting point of 45 °C. As to `CCNCC1CCN(c2cc3c(cc2Cl)c(=O)c(C(=O)O)cn3C2CC2)C1` (stereo not given), the melting point was over 310 °C. The same measure for `C=CCN(CC=C)C(=O)n1cnc(S(=O)CC)n1` (stereo not given): 41 to 43 °C; for `CCC1(COC(=O)c2cccc3ccccc23)COC1`: 62 °C.

Compound `CCOc1ccccc1NC(N)=S` yielded a melting point of 174 °C. In turn, `O=C(O)c1cnn2c(C(F)(F)F)cc(-c3ccc(C(F)(F)F)c(F)c3)nc12` showed a melting point of 212 °C.

`Cn1c2cc(Cl)cc(Cl)c2c2cc(C(=O)N3CCOCC3)sc21` yielded a melting point of 224 to 226 °C. The same measure for `O=C(O)Cc1cc(C(=O)c2ccc(Br)cc2)sc1-c1ccccc1`: 147 to 150 °C; for `FC(F)Oc1ccc2c(Cc3c(Cl)cncc3Cl)nnc(-n3cncn3)c2c1`: 220 to 224 °C; for `CC1=CC(OCc2ccccc2)(OC(=O)c2ccc(Br)c(OCCn3cnnn3)c2C)N(C)N1` (stereo not given): 122 to 125 °C. In turn, `C1=COc2ccc3[nH]c4c(c3c2=C1)C=CN=CC=4` came in with a melting point of over 177 °C. In the case of `CCCCc1nc(C(C)O)c(C(=O)OCC)[nH]1` (stereo not given) it was 149 °C; in that of `COc1ccc(C(=O)Nc2c(Cl)cncc2Cl)cc1OC1CC=CC1`, 193 to 195 °C. `COC(=O)COc1cccc(C=Cc2nc(-c3ccccc3)c(-c3ccccc3)o2)c1` registered a melting point of 79 to 82 °C. In the case of `Cc1nc2c(c(-c3ccccc3)nn2C)c(-c2ccc(F)cc2)c1CO` it was 231 to 236 °C; in that of `CCN(c1ccc(Cl)cc1C#N)S(=O)(=O)c1ccc(C)cc1`, 138 to 140 °C.

Turning to `CC(=O)CC[C@H](NC(=O)OCc1ccccc1)C(N)=O`, the melting point was 142 to 144 °C.

In turn, `CC1=NS(=O)(=O)N(C)C(Oc2ccc([N+](=O)[O-])cc2)=N1` had a melting point of 194 to 197 °C. As for `O=C(Nc1nc(C(F)(F)F)co1)C1c2ccccc2Oc2ccc(F)cc21` (racemic), the melting point turned out to be 241 °C.

Consider `C=CCN(C)CCNc1ccnc2cc(Cl)ccc12`, for which the melting point is 91 to 93 °C.
